From patent US11547644B2, “Emulsions comprising cationic emulsifiers based on MDIPA ester quats” (Evonik Operations GmbH, priority 2015, dated 2023)

Tests used:
[1] = Biodegradability in water, OECD 301
Excerpt: (§1) Consequently, an emulsifier according to the invention (Example 2) was investigated compared to distearyldimonium chloride with the help of various OECD tests.

[2] = system: Daphnia Magna; assay: Daphnia Magna Reproduction Test (OECD 211); settings: in vivo
Excerpt: as §1

[3] = system: invertebrate aquatic animals; assay: Acute Immobilization Test (OECD 202); format: in vivo
Excerpt: as §1

For `CCCCCCCCCCCCCCCCCC[N+](C)(C)CCCCCCCCCCCCCCCCCC.[Cl-]` [Distearyldimonium Chloride], the Biodegradability in water [1] was “OECD 301: 3% (28 d)”, the “Long-term toxicity towards invertebrate aquatic animals, NOEC(21 d)” value [2] was “NOEC(21 d) = 0.38 mg/l” and the “Short-term toxicity towards invertebrate aquatic animals, EC50(48h)” value [3] was “EC-50(48h) = 0.16 mg/l”.
